Assay results: patent US20210145838A1, “SELECTIVE PDE4D INHIBITORS AGAINST DEMYELINATING DISEASES” (Universiteit Hasselt, priority 2018, published 2021)

Tested on: cuprizone demyelinated mice
Experiment: In vivo remyelination in cuprizone-demyelinated mice (MBP IHC, mbp qPCR, TEM G ratio)
Set-up: species or system mouse
Excerpt: (§1) FIG. 8: MBP expression in the corpus callosum upon PDE4 inhibition. A) IHC; B no IHC. Forty-two eleven-weeks-old male C57bl6 mice were either subjected to a cuprizone treatment to induce demyelination (n=32) or left without treatment (control; n=10) for six weeks (day 0-42). From day 40 till day 49, the control mice and part of the cuprizone-treated mice (vehicle; n=10) received a vehicle treatment, receiving a s.c. injection with a 1% DMSO in 0.5% methylcellulose solution twice a day. The remaining cuprizone-treated mice received a roflumilast treatment (roflu 1 mg/kg (n=11) or roflu 3 mg/kg (n=11) in vehicle) twice a day from day 40-49. All animals were sacrificed at day 49. Brains were isolated at anteroposterior coordinates from −0.3 to −1.5 mm was cut in the midsagittal plane and used for slicing and immunohistochemistry (IHC) against MBP.
as §1, with “9:” for “8:”, “hippocampus” for “corpus callosum”, “inhibition.” for “inhibition. A) IHC; B no IHC.”, “immunohistochemistry” for “immunohistochemistry (IHC)”
FIG. 10: MBP expression in the corpus callosum upon PDE4 inhibition. C57bl6 mice were either subjected to a cuprizone treatment to induce demyelination or left without treatment for six weeks (day 0-42). From day 40 till day 49, the control mice and part of the cuprizone-treated mice received a vehicle treatment, receiving a s.c. injection with a 1% DMSO in 0.5% methylcellulose solution twice a day. The remaining cuprizone-treated mice received a roflumilast treatment (roflu 1 mg/kg or roflu 3 mg/kg in vehicle) twice a day from day 40-49. All animals were sacrificed at day 49. The left part of the corpus callosum at bregma Y-Z was used for TEM and subsequent G ratio measurement. G ratio is the ratio of the inner axonal diameter to the total outer diameter representing myelination of axons (e.g. a higher G ratio represents a demyelination). […] Data are expressed as mean±SEM with. (*p<0.05, **p<0.01, ***p<0.001). Control (n=5), vehicle (n=5), roflu 1 mg/kg (n=7), and roflu 3 mg/kg (n=9).
FIG. 12: MBP expression in the corpus callosum upon PDE4 inhibition. Thirty-six eleven-weeks-old male C57bl6 mice were either subjected to a cuprizone treatment to induce demyelination (n=27) or left without treatment (control; n=9) for six weeks (day 0-42). From day 40 till day 49, the control mice and part of the cuprizone-treated mice (vehicle; n=9) received a vehicle treatment, receiving a s.c. injection with a 1% DMSO in 0.5% methylcellulose solution twice a day. The remaining cuprizone-treated mice received a gebr32a treatment (gebr32a 0.1 mg/kg (n=9) or gebr32a 0.3 mg/kg (n=9) in vehicle) twice a day from day 40-49. All animals were sacrificed at day 49. Brains were isolated at anteroposterior coordinates from −0.3 to −1.5 mm was cut in the midsagittal plane and used for slicing and immunohistochemistry against MBP.
FIG. 13. MBP expression in the dendate gyrus upon PDE4D inhibition. Thirty-six eleven-weeks-old male C57bl6 mice were either subjected to a cuprizone treatment to induce demyelination (n=27) or left without treatment (control; n=9) for six weeks (day 0-42). From 20 day 40 till day 49, the control mice and part of the cuprizone-treated mice (vehicle; n=9) received a vehicle treatment, receiving a s.c. injection with a 1% DMSO in 0.5% methylcellulose solution twice a day. […]

[1] = 0.1 mg/kg s.c. twice a day, day 40-49
[2] = 0.3 mg/kg s.c. twice a day, day 40-49, vs vehicle treated mice
[3] = 3 mg/kg s.c. twice a day, day 40-49
[4] = 3 mg/kg s.c. twice a day, day 40-49, vs vehicle-treated cuprizone mice

## OC(CN1CCOCC1)Cn1ccc(-c2ccc(OC(F)F)c(OC3CCCC3)c2)n1 (stereo not drawn) [Gebr32a]
[1]
  MBP expression in the corpus callosum (IHC): not sufficient to significantly improve MPB expression
  MBP expression in the dendate gyrus (IHC): not sufficient to significantly improve MPB expression
[2]
  MBP expression in the corpus callosum (IHC): significantly increased MBP expression
  MBP expression in the dendate gyrus (IHC): significantly increased MBP expression
Lower dosage, 0.3 mg/kg vs 3 mg/kg
  Remyelination-inducing dosage compared to roflumilast treatment: 10 fold

## O=C(Nc1c(Cl)cncc1Cl)c1ccc(OC(F)F)c(OCC2CC2)c1 [roflumilast]
1 mg/kg and 3 mg/kg s.c. twice a day, day 40-49
  Relative mbp gene expression in the corpus callosum (qPCR): not altered
1 mg/kg s.c. twice a day, day 40-49
  G ratio in the corpus callosum (TEM): re-establishment of the G ratio to control levels
1 mg/kg s.c. twice a day, vs non-demyelinated control
  mbp mRNA expression in the corpus callosum (qPCR) compared to the control: reduced mbp mRNA expression
[3]
  G ratio in the corpus callosum (TEM): re-establishment of the G ratio to control levels
  MBP expression in hippocampus CA1 and CA3 (IHC): not in the cornu amonis 1 (CA1) or 3 (CA3)
[4]
  MBP expression in the corpus callosum (IHC): increased MBP expression
  MBP expression in the dendate gyrus (IHC): increased MBP expression
